Experimental data reported in US7473705B2, “Hexafluoroisopropanol substituted ether derivatives” (Hoffmann-LA Roche Inc., priority 2004, dated 2009).

What was measured:
human LXR alpha = biological target: T1, human LXR alpha (Homo sapiens, UniProt Q13133); test: Radioligand binding assay (scintillation proximity), LXR alpha; settings: GST-LXR alpha-LBD on SPA beads, radioligand displacement; read-out: LXRalpha Binding IC50
T1 construct: human LXR alpha (aa 164 to 447); made in house; host or cells: E. coli BL21(pLysS)
T1 sequence (Q13133 164-447): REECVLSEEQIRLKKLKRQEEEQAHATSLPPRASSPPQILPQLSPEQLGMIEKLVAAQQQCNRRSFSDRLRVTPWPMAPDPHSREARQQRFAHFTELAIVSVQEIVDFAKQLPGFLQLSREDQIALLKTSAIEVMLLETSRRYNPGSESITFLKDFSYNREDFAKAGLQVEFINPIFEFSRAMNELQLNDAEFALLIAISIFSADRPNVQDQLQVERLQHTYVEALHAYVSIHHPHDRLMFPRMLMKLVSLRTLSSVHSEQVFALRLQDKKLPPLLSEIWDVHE
Text: (§1) Mammalian expression vectors were constructed to express full-length human LXR alpha and LXR beta. Bacterial expression vectors were constructed to produce glutathione-s-transferase (GST) fused to the ligand binding domains (LBD) of human LXR alpha (aa 164 to 447) and human LXR beta (aa 155 to 460). To accomplish this, the portions of the sequences encoding the LBDs were amplified from full-length clones by PCR and then subcloned into the plasmid vectors. Final clones were verified by DNA sequence analysis (Willy et al., Genes Dev. 1995, 9:1033-45; Song et al., Proc Natl Acad Sci USA. 1994, 91:10809-13).
(§2) Induction, expression, and purification of GST-LBD fusion proteins were performed in E. coli strain BL21(pLysS) cells by standard methods (Ref: Current Protocols in Molecular Biology, Wiley Press, edited by Ausubel et al).
(§3) LXR alpha and LXR beta receptor binding were assayed in buffer consisting of 50 mM HEPES, pH 7.4, 10 mM NaCl, 5 mM MgCl2. For each 96-well reaction, 500 ng of GST-LXR alpha-LBD or 700 ng of GST-LXR beta-LBD fusion proteins were bound to 80 μg or 40 μg SPA beads (Pharmacia Amersham) respectively, in a final volume of 50 μl by shaking. The resulting slurry was incubated for 1 h at RT and centrifuged for 2 min at 1300×g. The supernatant containing unbound protein was removed, and the semi-dry pellet containing the receptor-coated beads was re-suspended in 50 μl of buffer. Radioligand (eg. 100,000 dpm of (N-(2,2,2-trifluoroethyl)-N-[4-(2,2,2-trifluoro-1-hydroxy-1-trifluoromethylethyl)-phenyl]-benzenesulfonamide)) was added, and the reaction incubated at RT for 1 h in the presence of test compounds, and then scintillation proximity counting was performed. All binding assays were performed in 96-well plates and the amount of bound ligand was measured on a Packard TopCount using OptiPlates (Packard). Dose response curves were measured within a range of concentration from 10^−10 M to 10^−4 M.

human LXR beta = biological target: T2, human LXR beta (Homo sapiens, UniProt P55055); test: Radioligand binding assay (scintillation proximity), LXR beta; settings: GST-LXR beta-LBD on SPA beads, radioligand displacement; read-out: LXRbeta Binding IC50
T2 construct: human LXR beta (aa 155 to 460); made in house; host or cells: E. coli BL21(pLysS)
T2 sequence (P55055 155-460): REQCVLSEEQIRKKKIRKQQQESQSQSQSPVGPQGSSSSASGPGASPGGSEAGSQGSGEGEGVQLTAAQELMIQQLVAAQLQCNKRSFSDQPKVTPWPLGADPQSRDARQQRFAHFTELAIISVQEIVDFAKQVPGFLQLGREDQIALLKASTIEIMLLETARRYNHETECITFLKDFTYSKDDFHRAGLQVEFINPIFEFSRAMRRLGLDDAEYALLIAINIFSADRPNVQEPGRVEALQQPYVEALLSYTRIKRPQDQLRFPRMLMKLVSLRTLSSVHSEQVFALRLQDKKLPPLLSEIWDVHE
Text: as §1, §2, §3

IC50 (human LXR alpha) [nM] | IC50 (human LXR beta) [nM] | Structure (SMILES)
33 | 22.7 | Cc1oc(-c2cccc(Cl)c2)nc1COc1ccc(C(O)(C(F)(F)F)C(F)(F)F)cc1Cl [Example 57, 2-{3-Chloro-4-[2-(3-chloro-phenyl)-5-methyl-oxazol-4-ylmethoxy]-phenyl}-1,1,1,3,3,3-hexafluoro-propan-2-ol]
93 | 14 | COC(=O)c1ccc(OC(COc2ccc(C(O)(C(F)(F)F)C(F)(F)F)cc2)c2ccccc2)cc1 (racemic) [Example 11, rac 4-{1-Phenyl-2-[4-(2,2,2-trifluoro-1-hydroxy-1-trifluoromethyl-ethyl)-phenoxy]-ethoxy}-benzoic acid methyl ester]
237 | 236 | OC(c1ccc(OCc2ccccc2)c(Cl)c1)(C(F)(F)F)C(F)(F)F [Example 13, 2-(4-Benzyloxy-3-chloro-phenyl)-1,1,1,3,3,3-hexafluoro-propan-2-ol]
